These results are taken from patent US7151090B2, “Methods for enhancing graft survival by modulating heme oxygenase activity” (priority 1998, dated 2006).

Structures are written as SMILES. Entries after “also recorded” stand apart in the source; their conditions may differ.

The subject of assay [1] is fatty livers from obese Zucker rats. Nature of the assay: Liver histology in the ex vivo cold ischemia model, Banff's criteria. The conditions noted are these: after 2 hours perfusion; graded 1 to 4; untreated 3.0±0.63. On the set-up: species or system rat. An excerpt: Histology and immunohistochemistry: Liver specimens were fixed in a 10% buffered formalin solution and embedded in paraffin. Sections were made at 4 μm and stained with H&E. The histologic severity of I/R injury in the ex vivo perfusion model was graded using International Banff Criteria. Using these criteria, lobular disarray and ballooning changes are graded from 1 to 4, where no change is given a score of 1 and severe disarray or ballooning changes is given a score of 4.

The test system is the same in assay [2]. Nature of the assay: Ex vivo steatotic rat liver cold ischemia model followed by reperfusion. The class given is in vivo. The following applies: for bile production / portal blood flow: 2-hour reperfusion after 6 hours cold ischemia; for bile production / portal blood flow / I/R-induced hepatocyte injury measured by sGOT release: compared with untreated controls; for I/R-induced hepatocyte injury measured by sGOT release: 2-hour reperfusion. The procedure:
Animals, metalloporphyrins, and adenovirus constructs are described in Example 3. Ex vivo cold ischemia model: Genetically obese Zucker rats underwent ether anesthesia and systemic heparinization. […] Control livers from untreated obese Zucker rats were stored for 6 hours at 4° C. in UW solution (n=6). There were 4 treatment groups. Group 1 animals received CoPP, the HO-1 inducer (5 mg/kg intraperitoneally) 24 hours before liver harvest (n=6). Group 2 rats were infused with Ad-HO-1 or Ad-β Gal (2.4×10^9 plaque-forming units (pfu) […]) 24 to 48 hours before the procurement (n=4–10). Group 3 donors were treated with Ad-HO-1 (2.4×10^9 pfu intravenously) at day-2, followed 1 day later by infusion of ZnPP (20 mg/kg intraperitoneally), the HO-1 inhibitor (n=4). Group 4 rats received ZnPP alone (20 mg/kg intraperitoneally) at 24 hours before harvest (n=4). All livers were procured at day 0, stored for 6 hours at 4° C. in UW solution, and then perfused on an isolated perfusion rat liver apparatus, as described. The Zucker livers were perfused ex vivo for 2 hours while temperature, pH, and inflow pressure were kept constant. Portal vein blood flow and pressure were recorded every 15 minutes, whereas bile output was monitored every 30 minutes. Portal vein blood flow was adjusted to maintain portal pressures of 13 to 18 cm H2O. Blood was collected at 30-minute intervals and serum glutamic-oxaloacetic trans-aminase (sGOT) levels were measured using an autoanalyzer from ANTECH Diagnostics (Irvine, Calif., USA). Following 2 hours of perfusion, a portion of the liver was snap-frozen for mRNA extraction and Western blot analysis of HO-1 expression; the remaining tissue samples were fixed in formalin for hematoxylin and eosin (H&E) staining.

The test system of assay [3] is liver isografts. Nature of the assay: OLT liver histology, modified Suzuki's criteria. The class given is in vivo, rat. The conditions noted are these: day 1 after transplant; graded 0 to 4; control 3.33±0.58. An excerpt: Histology and immunohistochemistry: Liver specimens were fixed in a 10% buffered formalin solution and embedded in paraffin. Sections were made at 4 μm and stained with H&E. The previously published Suzuki's criteria (Suzuki et al., Transplantation 55:1265–1272 (1993)), […] were modified to evaluate the histologic severity of I/R injury in the OLT model. In this classification sinusoidal congestion, hepatocyte necrosis, and ballooning degeneration are graded from 0 to 4. No necrosis, congestion or centrilobular ballooning is given a score of 0, whereas severe congestion and ballooning degeneration as well as greater than 60% lobular necrosis is given a value of 4.

In assay [4] the test system is HO-1. Nature of the assay: Western analysis of HO-1 expression in the OLT model. It counts as in vivo, rat. The following applies: day 1, 7, 14 and 100 after transplant; densitometer; untreated 0.09–0.85 AU. As to the method: (§1) Western blots: Protein was extracted from liver tissue samples with PBSTDS buffer (50 mM Tris, 150 mM NaCl, 0.1% SDS, 1% sodium deoxycholate, and 1% Triton X-100, pH 7.2). Proteins (30 μg/sample) in SDS-loading buffer (50 mM Tris, pH 7.6, 10% glycerol, 1% SDS) were subjected to 12% SDS-PAGE and transferred to nitrocellulose membrane (Bio-Rad Laboratories Inc., Hercules, Calif., USA). The gel was then stained with Coomassie blue to document equal protein loading. The membrane was blocked with 3% dry milk and 0.1% Tween-20 (Amersham, Arlington Heights, Ill., USA) in PBS and incubated with rabbit anti-rat HO-1 polyclonal Ab (Sangstat Corp., San Francisco, Calif., USA). The filters were washed and then incubated with horseradish peroxidase donkey anti-rabbit Ab (Amersham Life Sciences, Arlington Heights, Ill., USA). Relative quantities of HO-1 protein were determined using a densitometer (Kodak Digital Science 1D Analysis Software, Rochester, N.Y., USA) and results were expressed in absorbance units (AU).

The subject of assay [5] is fatty liver isografts from obese Zucker donors in lean Zucker recipients. Nature of the assay: Syngeneic orthotopic liver transplant (OLT) model, survival and sGOT. It counts as in vivo, rat. The procedure: Syngeneic Orthotopic Liver Transplant (OLT) model: Syngeneic liver transplants were performed using fatty livers that were harvested from obese Zucker rats and stored for 4 hours at 4° C. in University of Wisconsin (UW) solution before being transplanted into lean Zucker recipients. OLTs were performed with revascularization without hepatic artery reconstruction. There were 2 treatment groups. In the first group, obese Zucker rats (n=10) received CoPP (5 mg/kg intraperitoneally) 24 hours before the procurement. Group 2 donors (n=11) were treated with Ad-HO-1 (2.4×10^9 pfu intravenously) 24 hours before harvest. OLT recipients were followed for survival and serum glutamic-oxaloacetic trans-aminase (sGOT) levels. Separate groups of rats (n=2/group) were sacrificed at 1, 7, 14, and 100 days after OLT, and liver samples were collected for H&E/immunohistology staining and Western blot analysis.

Assay [6] concerns HO-1. The assay can be described thus: Western analysis of HO-1 expression in the ex vivo I/R injury model. On the set-up: species or system rat. The conditions noted are these: at completion of 2-hour perfusion period; densitometer; untreated 0.11 AU. As to the method:
as §1
Western blots were performed as described in Example 3.

Assay [7] relates to HO-1. Nature of the assay: Rat sandwich ELISA of HO-1 protein in liver. The conditions noted are these: 5 mg/kg intraperitoneally. The class given is in vivo. As to the method: To test that stress-induced upregulation of HO-1 reduces I/R insult in steatotic rat livers, we have chosen 2 distinct HO-1-inducing approaches. First, donor rats were pretreated with CoPP (5 mg/kg intraperitoneally), a regimen that increases HO-1 protein levels in rat livers by 250% in a rat sandwich ELISA. Second, because infusion of CoPP in high doses may modulate other heme enzymes such as nitric oxide synthase (NOS) and guanylate cyclase, we have also used Ad-based gene delivery to provide “proof of principle” and to selectively upregulate HO-1 expression in prospective liver donors. Western blot analysis confirmed increased HO-1 protein expression in the ex vivo I/R model using Ad-HO-1-transduced rat steatotic livers.
For orientation: In an ELISA, binding on a coated surface is turned into a signal by an enzyme label.

In assay [8] the test system is C57B1/6 heart allografts in CBA recipients. Nature of the assay: Heterotopic heart transplantation, allograft survival. It counts as in vivo, mouse. The following applies: control 7.8±1.1. As to the method:
FIG. 2 is a graph showing the prolongation of heart allograft survival following metalloprotoporphyrin therapy. CBA recipients of C57B1/6 heart allografts were either untreated or treated as follows: Zn-protoporphyrin group (n=4); Zn-protoporphyrin was administered at 10 mg/kg/day on day −1 before transplantation and on days 1–9 post transplantation. Co-protoporphyrin group (n=4); Co-protoporphyrin was administered at 20 mg/kg/day on days 0–5 post-transplantation; Zn-protoporphyrin pretreatment group (n=3); heart donors were treated one day before transplantation with 50 mg/kg Zn-protoporphyrin.
Heterotopic Heart Transplantation: Abdominal heterotopic heart transplantation was performed as previously described by Ono and Lindsey, J. Thorac. Cardiovasc. Surg. 7:225–229 (1969) using […] donors and CBA recipients. Metalloporphyrin was administered intraperitoneally using various protocols. Heart allograft survival was monitored daily by direct palpation, and rejection was defined as termination of palpable cardiac contractility. Results are expressed as percentage graft survival at a given postoperative period. Statistical analysis was performed with the Mann-Whitney test.

In assay [9] the test system is EL4 cells. The assay can be described thus: Cytotoxic T-cell activity, four hour chromium release assay. It counts as cell-based, mouse. The following applies: for target cell lysis: at about 10 μg/ml, cytotoxic T-cells, E:T 20:1, four hour incubation; for chromium release from target cells: at concentrations higher than about 10 μg/ml, compared with spontaneous release without compound. An excerpt:
Cytotoxic T-cell Activity: To assay the effect of metalloprotoporphyrins on cytotoxic T-cell activity, CBA to B6 effectors were generated following a five day culture of 3×10^6 CBA spleen cells with 3×10^6 mitomycin-treated B6 spleen cells in wells of a 24-well plate (Nunclone, Delta, Nunc, Denmark) in R-10 medium. Effector cells were then harvested and washed. (H2^b), a mouse lymphoma induced in C57BL/6N was used as target cells. EL4 cells were routinely subcultured once every three days. They were then collected, washed, and labeled with 0.1 mCi of sodium chromate-51 in 200 μl for one hour at 37° C. Effector (E) and target (t) cells were added into V-shaped tissue culture plates (Nunc, Denmark) at E:T of 20:1. Metalloprotoporphyrins were diluted to the working concentrations with PBS and added at the beginning of the four hour incubation period. For the determination of maximal release, 1% triton X-100 was added to separate wells. Plates were centrifuged for three minutes to increase cellular contact before the four hour incubation period. After incubation 75 μl supernatant from each well was collected and the amount of^51Cr released was counted using a TopCount scintillation counter. The degree of cell lysis was calculated using the formula below: […]

The test system of assay [10] is liver isografts. Nature of the assay: OLT immunohistochemistry for mononuclear cell (MNC) infiltration. It counts as in vivo, rat. As to the method: OLTs were examined serially by immunohistochemistry for mononuclear cell (MNC) infiltration. Briefly, liver tissue was embedded in Tissue Tek OCT compound (Miles Inc., Elkhart, Ind., USA), snap frozen in liquid nitrogen, and stored at −70° C. Cryostat sections (5 μm) were fixed in acetone, and then endogenous peroxidase activity was inhibited with 0.3% H2O2 in PBS. Normal heat-inactivated donkey serum (10%) was used for blocking. Appropriate primary mouse Ab against rat T cells (R73) and monocytes/macrophages (ED1) (Harlan Bioproducts for Science, Indianapolis, Ind., USA) were added at optimal dilutions. Bound primary Ab was detected using biotinylated donkey anti-mouse IgG and streptavidin peroxidase-conjugated complexes (DAKO Corp., Carpinteria, Calif., USA). The control sections were performed by replacing the primary Ab with either dilution buffer or normal mouse serum. The peroxidase reaction was developed with 3,3-diaminobenzidine tetrahydrochloride (Sigma Chemical Co., St. Louis, Mo., USA). The sections were evaluated blindly by counting the labeled cells in triplicates in 10 high-power fields.

The mark [11] stands for this setting: recipients treated i.p., Zn 10 mg/kg/day day -1 and days 1-9, Co 20 mg/kg/day days 0-5.

With `C=CC1=C(C)c2cc3[n-]c(cc4nc(cc5[n-]c(cc1n2)c(C)c5CCC(=O)[O-])C(CCC(=O)[O-])=C4C)c(C)c3C=C.[Co+2].[H+].[H+]` [CoPP, cobalt-protoporphyrin], the “Banff's score” value in assay [1] is given as 1.21±0.39. Moreover, in assay [2], the bile production entry is listed as “significantly increased; also recorded: significantly higher”. In assay [2], the portal blood flow result was “significantly improved”. Also, in assay [2], the “I/R-induced hepatocyte injury measured by sGOT release” value is “markedly reduced”. Further, in [2] (at 60 minutes of reperfusion, untreated controls 102±8.23), the sGOT concentrations was 53.3±8.23 IU/L. Further, the Suzuki score in [3] worked out at 1.33±0.70. The results for the HO-1 expression in [4] and in [6] were 1.21–2.14 AU and 2.46 AU, respectively. Further, the sGOT levels in assay [5] (day 1 post transplant, control 2695) is reported as 1838 IU/L; in assay [5] (day 7 post transplant, control 1570) it was 477 IU/L; in [5] (day 14 post transplant, control 460), 198 IU/L. Also, the “recipients still alive at well over 100 days after transplant” value in assay [5] (lean Zucker rats engrafted with livers from treated obese Zucker donors) is listed as 8 out of 10. The “increase of HO-1 protein levels in rat livers” value in assay [7] is listed as 250%. In addition, the “heart allograft survival (mean survival time)” value (from here on “heart allograft survival”) in assay [8] (setting [11]) is listed as 10.5±0.6 days. In addition, the target cell lysis in [9] was determined as 0%. Also, the “chromium release from target cells” value in [9] was “lower than the spontaneous release”. Also, the “intragraft T cells” value in assay [10] (day 1, labeled cells counted in 10 high-power fields, control 9±3) worked out at 2±1. For the same compound, the intragraft monocytes/macrophages in assay [10] (day 1, labeled cells counted in 10 high-power fields, control 136±31) came to 71±12. In addition, the “hepatocyte architecture and MNC infiltrate of long-term liver grafts” value in [10] (grafts harvested at day 100) was “good preservation of hepatocyte architecture and only mild MNC infiltrate”.
As to `C=CC1=C(C)c2cc3[n-]c(cc4nc(cc5[n-]c(cc1n2)c(C)c5C=C)C(C)=C4CCC(=O)O)c(CCC(=O)O)c3C.[Zn+2]` [ZnPP, Zinc-protoporphyrin], the “Banff's score” value in [1] is on record as 2.86±0.12. Further, in assay [2], the bile production result is given as “diminished”, the portal blood flow result is “diminished” and the “I/R-induced hepatocyte injury measured by sGOT release” value was “augmented hepatocyte injury comparable with otherwise untreated fatty controls”. The compound also registered an HO-1 expression in assay [6] of 0.12 AU. The “heart allograft survival” value in [8] (heart donors pre-treated one day before transplantation (50 mg/kg)) is reported as 10.3±1.5 days. For the same compound, in assay [8] (setting [11]), the “heart allograft survival” value came out at 12.0±2.4 days. For the same compound, in [9], the target cell lysis came out at 0% and the “chromium release from target cells” value was “lower than the spontaneous release”.
